Among the test systems are 786-0 renal; CCRF-CEM leukemia; COLO 205 colon; DMS 273 small cell lung; HCC-2998 colon; HL-60(TB) leukemia; HOP-92 NSCLC; IGROV1 ovarian; KM12 colon; M14 melanoma; MOLT-4 leukemia; NCI-H23 lung; OVCAR-8 ovarian; RPMI-8226 leukemia; SF-268 CNS; SK-MEL-2 melanoma; SK-MEL-5 melanoma; SN12C renal; SNB-19 CNS; NCI/ADR-RES ovarian.
Holding throughout (assay): NCI-60 cell line screen, 48 h

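Results reflect a 48-hour exposure of cells in 96-well plates to compound at five concentrations. TGI marks complete inhibition of growth.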

As for `O=C(Cc1ccccc1)NN1C(=O)C(Cl)C1c1cccc([N+](=O)[O-])c1` (stereo not drawn), the TGI in the experiment with 786-0 renal was over 84.4 µM; in the experiment with CCRF-CEM leukemia, 5.97 µM; in the experiment on COLO 205 colon it was over 100 µM; in the experiment with DMS 273 small cell lung, over 100 µM; in the experiment with HCC-2998 colon, over 100 µM; with HL-60(TB) leukemia, 29.5 µM. Also, the TGI in the experiment with HOP-92 NSCLC was 30.5 µM; in the experiment with IGROV1 ovarian, 19.3 µM; in the experiment on KM12 colon, over 100 µM; in the experiment with M14 melanoma, over 100 µM; in the experiment with MOLT-4 leukemia it was 45 µM; with NCI-H23 lung, over 92.2 µM. The TGI was over 100 µM in the experiment with OVCAR-8 ovarian; 47.8 µM in the experiment with RPMI-8226 leukemia; over 100 µM with SF-268 CNS; over 73.8 µM in the experiment with SK-MEL-2 melanoma; over 100 µM in the experiment on SK-MEL-5 melanoma; over 100 µM in the experiment on SN12C renal. In addition, the TGI in the experiment with SNB-19 CNS was over 100 µM.

Turning to `CCCCCC#COC1CC(C)CC[C@@H]1C(C)C` (stereo partly drawn), the TGI with 786-0 renal is over 100 µM; with CCRF-CEM leukemia, 31.9 µM; in the experiment with COLO 205 colon, over 100 µM; with DMS 273 small cell lung it was over 100 µM; in the experiment on HCC-2998 colon, over 100 µM; in the experiment on HL-60(TB) leukemia, 55 µM. Moreover, the TGI was over 100 µM with HOP-92 NSCLC; 79.5 µM in the experiment with IGROV1 ovarian; over 100 µM in the experiment with KM12 colon; over 100 µM in the experiment on M14 melanoma; over 100 µM with NCI-H23 lung; over 100 µM in the experiment on OVCAR-8 ovarian. The TGI in the experiment with RPMI-8226 leukemia was 69.7 µM; in the experiment on SF-268 CNS, over 100 µM; in the experiment on SK-MEL-2 melanoma it was over 100 µM; with SK-MEL-5 melanoma, over 100 µM; with SN12C renal, over 100 µM; in the experiment with SNB-19 CNS, over 100 µM.

As to `N#Cc1ccc(C(C2C(=O)NC(=O)NC2=O)C2C(=O)NC(=O)NC2=O)cc1`, the TGI with 786-0 renal, in the experiment with CCRF-CEM leukemia, in the experiment on COLO 205 colon, in the experiment with DMS 273 small cell lung, with HCC-2998 colon and in the experiment with HL-60(TB) leukemia was over 100 µM in each case. Further, the TGI with HOP-92 NSCLC, in the experiment with IGROV1 ovarian, in the experiment with KM12 colon, in the experiment on M14 melanoma, in the experiment on MOLT-4 leukemia and in the experiment on NCI-H23 lung was over 100 µM in each case. Moreover, the TGI in the experiment on OVCAR-8 ovarian, with RPMI-8226 leukemia, in the experiment on SF-268 CNS, in the experiment on SK-MEL-2 melanoma, with SK-MEL-5 melanoma and with SN12C renal was over 100 µM in each case. Besides, the TGI in the experiment on SNB-19 CNS was over 100 µM.

Consider `O=C1C=CC(=O)c2cc(Sc3ccccc3)c(=O)c(Sc3ccccc3)cc21`, for which the TGI in the experiment on 786-0 renal is over 100 µM; in the experiment on CCRF-CEM leukemia, 60.9 µM; with COLO 205 colon it was over 100 µM; with DMS 273 small cell lung it was over 100 µM; in the experiment on HCC-2998 colon, over 100 µM; with HL-60(TB) leukemia, 27.7 µM. Moreover, the TGI in the experiment with HOP-92 NSCLC is 50.5 µM; in the experiment on IGROV1 ovarian, over 100 µM; in the experiment on KM12 colon, over 100 µM; in the experiment on M14 melanoma it was over 100 µM; with MOLT-4 leukemia, over 100 µM; in the experiment on NCI-H23 lung, over 100 µM. Further, the TGI in the experiment with OVCAR-8 ovarian, in the experiment with RPMI-8226 leukemia, in the experiment with SF-268 CNS, in the experiment on SK-MEL-2 melanoma, in the experiment with SK-MEL-5 melanoma and with SN12C renal was over 100 µM each time. The TGI in the experiment on SNB-19 CNS was over 100 µM.

In the case of `COc1ccc2[nH]c3c4c(cc(-c5ccccc5)c3c2c1)C(=O)N(c1ccccc1)C4=O`, the TGI in the experiment on 786-0 renal is 29.5 µM; in the experiment on CCRF-CEM leukemia, 15.1 µM; in the experiment with COLO 205 colon, over 100 µM; with DMS 273 small cell lung, 36.8 µM; with HCC-2998 colon, over 100 µM; in the experiment on HL-60(TB) leukemia, over 100 µM. The TGI in the experiment on HOP-92 NSCLC is 74 µM; in the experiment with IGROV1 ovarian, over 100 µM; in the experiment on KM12 colon, over 100 µM; with M14 melanoma, over 95.4 µM; in the experiment with MOLT-4 leukemia it was over 100 µM; in the experiment on NCI-H23 lung it was 98.6 µM. Moreover, the TGI in the experiment on OVCAR-8 ovarian is 39.6 µM; in the experiment with RPMI-8226 leukemia it was over 100 µM; in the experiment with SF-268 CNS it was 97.1 µM; in the experiment with SK-MEL-2 melanoma, over 100 µM; in the experiment with SK-MEL-5 melanoma, over 100 µM; with SN12C renal, over 100 µM. The same compound gave a TGI with SNB-19 CNS of over 81.8 µM.

Consider `CCCCCCCC(CC(=O)NC(CO)C(=O)NC(CO)CC(C)C)OC(=O)CC(CCCCCCC)OC(=O)CC(CCCCCCC)OC1OC(C)C(O)C(OC2OC(C)C(O)C(O)C2O)C1O` (stereo not drawn), for which the TGI was found to be 35 µM in the experiment on 786-0 renal; 15 µM in the experiment on CCRF-CEM leukemia; 22.8 µM with COLO 205 colon; 24 µM in the experiment with DMS 273 small cell lung; 43.1 µM in the experiment with HCC-2998 colon; 10.5 µM with HL-60(TB) leukemia. The TGI with HOP-92 NSCLC stood at 24.8 µM; in the experiment with IGROV1 ovarian it was 26.4 µM; in the experiment with KM12 colon, 26.3 µM; in the experiment on M14 melanoma, 17.5 µM; in the experiment with MOLT-4 leukemia it was 28.2 µM; in the experiment with NCI-H23 lung, 30 µM. For the same compound, the TGI in the experiment with NCI/ADR-RES ovarian came to 33.7 µM; in the experiment with OVCAR-8 ovarian it was 34.4 µM; in the experiment with RPMI-8226 leukemia it was 8.96 µM; with SF-268 CNS, 23.2 µM; in the experiment on SK-MEL-2 melanoma it was 13.3 µM; in the experiment on SK-MEL-5 melanoma, 21.3 µM. Further, the results for the TGI in the experiment on SN12C renal and with SNB-19 CNS were 28.7 µM and 26.1 µM, respectively.

As to `COC1=CC(=O)c2c(cc3c(c2O)-c2c(OC)cc4cc5c(c(O)c4c2OC(=O)CC(C)(O)C3)C(=O)CC(C)(O)C5)C1=O` (stereo not drawn), the TGI in the experiment with 786-0 renal amounted to 7.72 µM; in the experiment with CCRF-CEM leukemia, 6.59 µM; in the experiment on COLO 205 colon, 3.17 µM; with DMS 273 small cell lung it was 5.31 µM; with HCC-2998 colon, 3.21 µM; in the experiment on HL-60(TB) leukemia, 5.56 µM. The TGI in the experiment with HOP-92 NSCLC amounted to 4.12 µM; with IGROV1 ovarian, 3.97 µM; in the experiment with KM12 colon, 8.98 µM; with M14 melanoma, 2.66 µM; with MOLT-4 leukemia it was 6.67 µM; with NCI-H23 lung, 2.46 µM. Further, the TGI worked out at 6.49 µM in the experiment on OVCAR-8 ovarian; 5.85 µM in the experiment on RPMI-8226 leukemia; 9.26 µM in the experiment with SF-268 CNS; 2.71 µM in the experiment on SK-MEL-2 melanoma; 0.606 µM in the experiment on SK-MEL-5 melanoma; 3.27 µM with SN12C renal. The compound also yielded a TGI in the experiment on SNB-19 CNS of 4.13 µM.

Values taken from PubChem BioAssay (NCI).
